Read-outs that look alike come from different tables or passages of the source.
Assay: Plasma concentration versus time of Compound I and metabolite Compound III in patients dosed QD or BID with Form B of Compound II plus fulvestrant
Format: in vivo, human
Details: human, plasma, oral; for concentration at 8 day / concentration at 15 day: Cohort 7, 150 mg BID of Form B; for concentration at 8 day: Day 8; for concentration at 15 day: Day 15
Text: Patients were enrolled into 1 of 2 parallel, independently operating, dose-escalation dosing cohorts with Form B of Compound II administered continuously either once daily (QD) or twice daily (BID) with food with fixed-dose fulvestrant (intramuscularly every 14 days for the first three injections and then every 28 days). Pre- or perimenopausal patients also received goserelin for the duration of study treatment. A […] agonist was started at least 28 days before the first dose of Form B, and those patients who were taking another LHRH agonist were switched to goserelin on Day 1. Patients were split into […] cohorts providing once a day (QD) dosing of 200 mg, 300 mg, 400 mg, 500 mg, or 650 mg of Form B, or twice a day (BID) dosing of 100 mg, 150 mg, or 200 mg of Form B. The second dose in BID cohorts was not administered in the evening until at least 12 hours after the initial morning dose of Form B. The dosing cohorts for Form B of Compound II are provided in Table 1.
Blood samples were collected at the following time points relative to the morning dose of Form B at Day 1 and at Day 29: pre-dose (0 hour) and 1, 2, 3, 4, 6, 8, 10, 12 (prior to the evening dose in the BID cohorts), and 24 (prior to the next day's morning dose) hours after dosing. A 5-minute time window was allowed for samples collected between the predose and 3 hours after Form B dosing. A 15-minute window was allowed for samples collected between 4 to 12 hours after Form B dosing. A 1-hour window was allowed for the sample collected 24 hours after Form B dosing. Blood samples for Compound I PK trough levels were collected pre-dose at Day 8, Day 15, and Day 22 prior to the morning administration of Compound I. Plasma concentrations of Compound I and its metabolite, Compound III, were measured using validated methods.
Analysis of plasma concentration versus time data for calculation of standard pharmacokinetic (PK) parameters following oral administration was conducted using Phoenix WinNonlin version 6.3 using actual blood sampling times.

[1] = 150 mg, read-out: Trough Compound I Concentration, Max
[2] = 150 mg, read-out: Trough Compound I Concentration, Median

`CC(C)N1CCN(c2ccc(Nc3ncc4cc5n(c4n3)C3(CCCCC3)CNC5=O)nc2)CC1` [Compound I, 2′-((5-(4-isopropylpiperazin-1-yl)pyridin-2-yl)amino)-7′,8′-dihydro-6′H-spiro[cyclohexane-1,9′-pyrazino[1′,2′:1,5]pyrrolo[2,3-d]pyrimidin]-6′-one] showed a concentration at 0 h (100 mg, Cohort 6, 100 mg BID of Form B, Day 29, 0.0 h, read-out: Compound I Concentration, Median) of 4.13 ng/mL, a concentration at 0 h (100 mg, Cohort 6, 100 mg BID of Form B, Day 29, 0.0 h, read-out: Compound I Concentration, Min) of 1.54 ng/mL and a concentration at 1 h (100 mg, Cohort 6, 100 mg BID of Form B, Day 29, 1.0 h, read-out: Compound I Concentration, Max) of 15.7 ng/mL. For the same molecule, the concentration at 1 h (100 mg, Cohort 6, 100 mg BID of Form B, Day 29, 1.0 h, read-out: Compound I Concentration, Mean) was 9.25 ng/mL, the concentration at 1 h (100 mg, Cohort 6, 100 mg BID of Form B, Day 29, 1.0 h, read-out: Compound I Concentration, Median) was 9.34 ng/mL and the concentration at 1 h (100 mg, Cohort 6, 100 mg BID of Form B, Day 29, 1.0 h, read-out: Compound I Concentration, Min) was 1.79 ng/mL. It also gave a concentration at 2 h (100 mg, Cohort 6, 100 mg BID of Form B, Day 29, 2.0 h, read-out: Compound I Concentration, Max) of 19.6 ng/mL, a concentration at 2 h (100 mg, Cohort 6, 100 mg BID of Form B, Day 29, 2.0 h, read-out: Compound I Concentration, Mean) of 11 ng/mL and a concentration at 2 h (100 mg, Cohort 6, 100 mg BID of Form B, Day 29, 2.0 h, read-out: Compound I Concentration, Median) of 11.8 ng/mL. The concentration at 2 h (100 mg, Cohort 6, 100 mg BID of Form B, Day 29, 2.0 h, read-out: Compound I Concentration, Min) was 2.94 ng/mL, the concentration at 3 h (100 mg, Cohort 6, 100 mg BID of Form B, Day 29, 3.0 h, read-out: Compound I Concentration, Max) was 20.5 ng/mL and the concentration at 3 h (100 mg, Cohort 6, 100 mg BID of Form B, Day 29, 3.0 h, read-out: Compound I Concentration, Mean) was 10.5 ng/mL. For the same molecule, the concentration at 3 h (100 mg, Cohort 6, 100 mg BID of Form B, Day 29, 3.0 h, read-out: Compound I Concentration, Median) was 8.31 ng/mL, the concentration at 3 h (100 mg, Cohort 6, 100 mg BID of Form B, Day 29, 3.0 h, read-out: Compound I Concentration, Min) was 4.4 ng/mL and the concentration at 4 h (100 mg, Cohort 6, 100 mg BID of Form B, Day 29, 4.0 h, read-out: Compound I Concentration, Max) was 19.8 ng/mL. For the same molecule, the concentration at 4 h (100 mg, Cohort 6, 100 mg BID of Form B, Day 29, 4.0 h, read-out: Compound I Concentration, Mean) was 10.5 ng/mL, the concentration at 4 h (100 mg, Cohort 6, 100 mg BID of Form B, Day 29, 4.0 h, read-out: Compound I Concentration, Median) was 9.26 ng/mL and the concentration at 4 h (100 mg, Cohort 6, 100 mg BID of Form B, Day 29, 4.0 h, read-out: Compound I Concentration, Min) was 5.14 ng/mL. The concentration at 6 h (100 mg, Cohort 6, 100 mg BID of Form B, Day 29, 6.0 h, read-out: Compound I Concentration, Max) was 16.2 ng/mL, the concentration at 6 h (100 mg, Cohort 6, 100 mg BID of Form B, Day 29, 6.0 h, read-out: Compound I Concentration, Mean) was 8.82 ng/mL and the concentration at 6 h (100 mg, Cohort 6, 100 mg BID of Form B, Day 29, 6.0 h, read-out: Compound I Concentration, Median) was 8.11 ng/mL. It also gave a concentration at 6 h (100 mg, Cohort 6, 100 mg BID of Form B, Day 29, 6.0 h, read-out: Compound I Concentration, Min) of 4.1 ng/mL, a concentration at 8 h (100 mg, Cohort 6, 100 mg BID of Form B, Day 29, 8.0 h, read-out: Compound I Concentration, Max) of 13.8 ng/mL and a concentration at 8 h (100 mg, Cohort 6, 100 mg BID of Form B, Day 29, 8.0 h, read-out: Compound I Concentration, Mean) of 7.45 ng/mL. For the same molecule, the concentration at 8 h (100 mg, Cohort 6, 100 mg BID of Form B, Day 29, 8.0 h, read-out: Compound I Concentration, Median) was 6.57 ng/mL, the concentration at 8 h (100 mg, Cohort 6, 100 mg BID of Form B, Day 29, 8.0 h, read-out: Compound I Concentration, Min) was 3.61 ng/mL and the concentration at 10 h (100 mg, Cohort 6, 100 mg BID of Form B, Day 29, 10.0 h, read-out: Compound I Concentration, Max) was 11.4 ng/mL. For the same molecule, the concentration at 10 h (100 mg, Cohort 6, 100 mg BID of Form B, Day 29, 10.0 h, read-out: Compound I Concentration, Mean) was 6.23 ng/mL, the concentration at 10 h (100 mg, Cohort 6, 100 mg BID of Form B, Day 29, 10.0 h, read-out: Compound I Concentration, Median) was 5.44 ng/mL and the concentration at 10 h (100 mg, Cohort 6, 100 mg BID of Form B, Day 29, 10.0 h, read-out: Compound I Concentration, Min) was 2.88 ng/mL. The concentration at 12 h (100 mg, Cohort 6, 100 mg BID of Form B, Day 29, 12.0 h, read-out: Compound I Concentration, Max) was 10.1 ng/mL, the concentration at 12 h (100 mg, Cohort 6, 100 mg BID of Form B, Day 29, 12.0 h, read-out: Compound I Concentration, Mean) was 7.16 ng/mL and the concentration at 12 h (100 mg, Cohort 6, 100 mg BID of Form B, Day 29, 12.0 h, read-out: Compound I Concentration, Median) was 8.36 ng/mL. The concentration at 12 h (100 mg, Cohort 6, 100 mg BID of Form B, Day 29, 12.0 h, read-out: Compound I Concentration, Min) was 2.37 ng/mL, the concentration at 0 h (150 mg, 150 mg BID of Form B, Day 1, 0.0 h, Mean, read-out: Compound I Concentration) was 0 ng/mL and the concentration at 0 h (150 mg, 150 mg BID of Form B, Day 1, 0.0 h, Median, read-out: Compound I Concentration) was 0 ng/mL. For the same molecule, the concentration at 1 h (150 mg, 150 mg BID of Form B, Day 1, 1.0 h, Mean, read-out: Compound I Concentration) was 4.63 ng/mL, the concentration at 1 h (150 mg, 150 mg BID of Form B, Day 1, 1.0 h, Median, read-out: Compound I Concentration) was 5.06 ng/mL and the concentration at 2 h (150 mg, 150 mg BID of Form B, Day 1, 2.0 h, Mean, read-out: Compound I Concentration) was 11 ng/mL. The concentration at 2 h (150 mg, 150 mg BID of Form B, Day 1, 2.0 h, Median, read-out: Compound I Concentration) was 11.6 ng/mL, the concentration at 3 h (150 mg, 150 mg BID of Form B, Day 1, 3.0 h, Mean, read-out: Compound I Concentration) was 14.4 ng/mL and the concentration at 3 h (150 mg, 150 mg BID of Form B, Day 1, 3.0 h, Median, read-out: Compound I Concentration) was 10.2 ng/mL. For the same molecule, the concentration at 4 h (150 mg, 150 mg BID of Form B, Day 1, 4.0 h, Mean, read-out: Compound I Concentration) was 20.7 ng/mL, the concentration at 4 h (150 mg, 150 mg BID of Form B, Day 1, 4.0 h, Median, read-out: Compound I Concentration) was 21.5 ng/mL and the concentration at 6 h (150 mg, 150 mg BID of Form B, Day 1, 6.0 h, Mean, read-out: Compound I Concentration) was 12.2 ng/mL. It also gave a concentration at 6 h (150 mg, 150 mg BID of Form B, Day 1, 6.0 h, Median, read-out: Compound I Concentration) of 10.4 ng/mL, a concentration at 8 h (150 mg, 150 mg BID of Form B, Day 1, 8.0 h, Mean, read-out: Compound I Concentration) of 10.1 ng/mL and a concentration at 8 h (150 mg, 150 mg BID of Form B, Day 1, 8.0 h, Median, read-out: Compound I Concentration) of 9.95 ng/mL. The concentration at 10 h (150 mg, 150 mg BID of Form B, Day 1, 10.0 h, Mean, read-out: Compound I Concentration) was 8.98 ng/mL, the concentration at 10 h (150 mg, 150 mg BID of Form B, Day 1, 10.0 h, Median, read-out: Compound I Concentration) was 8.98 ng/mL and the concentration at 12 h (150 mg, 150 mg BID of Form B, Day 1, 12.0 h, Mean, read-out: Compound I Concentration) was 7.73 ng/mL. It also gave a concentration at 12 h (150 mg, 150 mg BID of Form B, Day 1, 12.0 h, Median, read-out: Compound I Concentration) of 7.38 ng/mL, a concentration at 8 day [1] of 42.3 ng/mL and a concentration at 8 day (150 mg, read-out: Trough Compound I Concentration, Mean) of 26.8 ng/mL. The concentration at 8 day [2] was 20.6 ng/mL, the concentration at 8 day (150 mg, read-out: Trough Compound I Concentration, Min) was 17.4 ng/mL and the concentration at 15 day [1] was 35.7 ng/mL. The concentration at 15 day [2] was 23.3 ng/mL.
